Measurements published in patent US8101619B2, “Phenylpiperazine derivatives with a combination of partial dopamine-D2 receptor agonism and serotonin reuptake inhibition” (Solvay Pharmaceuticals B.V., priority 2004, dated 2012).
Counter-ions that a name gives are not always drawn.

Assays:
dopamine-D2 receptors = biological target: T1, dopamine-D2 receptors (Rattus norvegicus, UniProt P61169); assay: In vitro affinity for dopamine-D2 receptors ([3H]-spiroperidol receptor binding assay); details: read-out: Dopamine-D2 binding pKi (converted)
T1 construct: labels dopamine receptors in rat pituitary and brain; from tissue
T1 sequence (P61169 whole entry): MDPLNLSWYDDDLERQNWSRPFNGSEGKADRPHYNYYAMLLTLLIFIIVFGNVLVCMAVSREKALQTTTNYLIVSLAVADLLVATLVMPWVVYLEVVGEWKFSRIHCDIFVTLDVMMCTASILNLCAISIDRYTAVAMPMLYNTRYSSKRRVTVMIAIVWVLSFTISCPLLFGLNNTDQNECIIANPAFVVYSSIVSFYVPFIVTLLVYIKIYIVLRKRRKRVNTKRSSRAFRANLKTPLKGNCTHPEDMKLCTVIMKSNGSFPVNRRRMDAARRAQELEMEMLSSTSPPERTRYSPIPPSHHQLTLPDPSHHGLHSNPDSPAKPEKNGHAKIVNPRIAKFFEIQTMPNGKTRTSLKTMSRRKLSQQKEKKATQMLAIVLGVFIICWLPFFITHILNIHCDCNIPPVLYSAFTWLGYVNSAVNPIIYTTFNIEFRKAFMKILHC
Procedure: In Vitro Affinity for Dopamine-D2 Receptors
Affinity of the compounds for dopamine-D2 receptors was determined using the receptor binding assay described by 1. Creese, R. Schneider and S. H. Snyder: “[^3H]-Spiroperidol labels dopamine receptors in rat pituitary and brain”, Eur. J. Pharmacol., 46, 377-381, 1977.

serotonin reuptake sites = biological target: T2, serotonin reuptake sites (Rattus norvegicus, UniProt P31652); assay: In vitro affinity for serotonin reuptake sites ([3H]-paroxetine binding assay); details: receptor binding; read-out: 5-HT reuptake binding pKi (converted)
T2 construct: from tissue
T2 sequence (P31652 whole entry): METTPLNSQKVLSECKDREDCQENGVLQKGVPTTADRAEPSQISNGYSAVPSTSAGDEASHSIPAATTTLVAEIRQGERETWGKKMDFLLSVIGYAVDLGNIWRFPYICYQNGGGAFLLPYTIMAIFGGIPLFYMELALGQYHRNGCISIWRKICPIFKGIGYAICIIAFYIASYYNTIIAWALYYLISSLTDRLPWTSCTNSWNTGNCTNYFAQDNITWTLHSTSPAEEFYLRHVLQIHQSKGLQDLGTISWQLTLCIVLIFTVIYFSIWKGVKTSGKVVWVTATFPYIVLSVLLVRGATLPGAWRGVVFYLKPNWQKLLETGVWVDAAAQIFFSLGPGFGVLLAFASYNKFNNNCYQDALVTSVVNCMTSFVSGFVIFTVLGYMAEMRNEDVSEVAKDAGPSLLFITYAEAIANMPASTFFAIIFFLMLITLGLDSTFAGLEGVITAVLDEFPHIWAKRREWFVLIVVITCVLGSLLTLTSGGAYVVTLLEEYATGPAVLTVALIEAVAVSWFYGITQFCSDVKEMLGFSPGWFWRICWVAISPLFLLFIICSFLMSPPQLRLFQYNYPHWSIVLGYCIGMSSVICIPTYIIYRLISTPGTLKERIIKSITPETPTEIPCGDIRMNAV
Procedure: In Vitro Affinity for Serotonin Reuptake Sites
Affinity of the compounds for serotonin reuptake sites was determined using the receptor binding assay described by E. Habert et al.: “Characterisation of [^3H]-paroxetine binding to rat cortical membranes”, Eur. J. Pharmacol., 118, 107-114, 1985.

[1] = biological target: T3, Human dopamine D2,L receptors (Homo sapiens, UniProt P14416); assay: Inhibition of forskolin-induced [3H]-cAMP accumulation in CHO-K1 cells; format: cell-based; details: cloned human dopamine D2,L receptors in CHO-K1 cells; full agonist ε=1, full antagonist ε=0
T3 construct: host or cells: CHO-K1
T3 sequence (P14416 whole entry): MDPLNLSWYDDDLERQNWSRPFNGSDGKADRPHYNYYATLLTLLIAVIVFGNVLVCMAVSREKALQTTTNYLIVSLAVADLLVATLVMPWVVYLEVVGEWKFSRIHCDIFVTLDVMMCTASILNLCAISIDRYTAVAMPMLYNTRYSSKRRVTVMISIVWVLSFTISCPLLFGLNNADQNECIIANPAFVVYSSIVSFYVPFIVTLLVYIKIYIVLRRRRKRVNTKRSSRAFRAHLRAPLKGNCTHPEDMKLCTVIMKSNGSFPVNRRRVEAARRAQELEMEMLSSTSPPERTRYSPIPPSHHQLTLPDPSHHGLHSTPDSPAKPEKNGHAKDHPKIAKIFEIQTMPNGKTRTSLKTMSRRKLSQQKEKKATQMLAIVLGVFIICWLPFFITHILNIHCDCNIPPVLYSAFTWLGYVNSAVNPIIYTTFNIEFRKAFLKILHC
Procedure: Inhibition of Forskolin-Induced [^3H]-cAMP Accumulation
The in vitro functional activity at dopamine-D2 receptors, including the intrinsic activity (ε) of the compounds of the invention was measured by their ability to inhibit forskolin-induced [^3H]-cAMP accumulation.
Human dopamine D2,L receptors were cloned in fibroblast cell line CHO-K1 cells and obtained from Dr. Grandy, Vollum Institute, Portland, Oreg., USA. CHO cells were grown in a Dulbecco's modified Eagle's medium (DMEM) culture medium, supplemented with 10% heat-inactivated fetal calf serum, 2 mM glutamine, 1 mM pyruvate, 5000 units/ml penicillin, 5000 μg/ml streptomycin and 200 μg/ml G-418 at 37° C. in 93% air/7% CO2. For incubation with test compounds, confluent cultures grown in 24 wells plates were used. Each condition or substance was routinely tested in quadruplicate. Cells were loaded with 1 μCi [^3H]-adenine in 0.5 ml medium/well. After 2 hours, cultures were washed with 0.5 ml PBS containing 1 mM of the phosphodiesterase inhibitor isobutylmethylxanthine (IBMX) and incubated for 20 min with 0.5 ml PBS containing 1 mM IBMX and forskolin with or without test compound. After aspiration the reaction was stopped with 1 ml trichloroacetic acid 5% (w/v). […] 0.8 ml Extract was passed over Dowex (50WX-4 200-400 mesh) and aluminumoxide columns, eluted with water and 0.1M imidazole (pH=7.5). Eluates were mixed with 7 ml Insta-gel and radioactivity was counted with a liquid scintillation counter. The conversion of [^3H]-ATP into [^3H]-cAMP was expressed as the ratio in percentage radioactivity in the cAMP fraction as compared to combined radioactivity in both cAMP and ATP fractions, and basal activity was subtracted to correct for spontaneous activity.
Test compounds were obtained as 10 mM stock solutions in 100% DMSO, and diluted in PBS/IBMX to final concentrations. Typically, compounds were used in concentrations that ranged from 10^−10M to 10^−5M. From quadruplicate data counts, the mean was taken as an estimate for drug-induced, receptor-mediated effects at specified second messenger accumulation, expressed as percentage of control values (forskolin-stimulated cAMP accumulation, subtracted by basal activity). By using the non-linear curve-fitting program INPLOT or the Excel-add-in XL-Fit, mean values were plotted against drug concentration (in molar) and a sigmoid curve (four-parameter logistic curve) was constructed. The maximal forskolin-induced stimulated conversion is taken as maximum value and the maximal inhibition (usually at drug concentrations 10^−6 M or 10^−5 M) as minimum and these values were fixed during the fitting process. Thus, concentrations of the compound, causing 50% of the maximally obtained inhibition of forskolin-induced cAMP accumulation (EC50), are averaged over several experiments and presented as mean pEC50±SEM. Antagonist potency is assessed by co-incubating cells with a fixed agonist concentration and specified antagonist concentrations. Curve fitting procedures are identical to those used for estimating EC50 values. Thus IC50 values, i.e. the concentration that is able to achieve 50% of maximal antagonism that can be achieved by this compound. IC50 values are corrected using a Cheng-Prussoff equation, correcting it for agonist concentration and EC50 values that is obtained in the same experiment. Thus, Kb=IC50/(1+[agonist]/EC50, agonist). The corresponding pA2 value is −log (Kb). Concentration-response curve fitting allows estimation of pEC50 values and of maximal achievable effect (intrinsic activity or efficacy (ε). A full receptor agonist has ε=1, a full receptor antagonist has ε=0, and a partial receptor agonist has an intermediate intrinsic activity.

O=c1[nH]c2cccc(N3CCN(CCCCOc4cccc(F)c4)CC3)c2o1 [compound 9]
Ki (dopamine-D2 receptors): 6.31 nM | Ki (serotonin reuptake sites): 100 nM | Dopamine-D2 cAMP accum ε (intrinsic activity) [1]: 0.64 | melting point: 153 to 155 °C

CN(CCCN1CCN(c2cccc3[nH]c(=O)oc23)CC1)c1cccc(C#N)c1 [compound 15]
Ki (dopamine-D2 receptors): 6.31 nM | Ki (serotonin reuptake sites): 0.794 nM | Dopamine-D2 cAMP accum ε (intrinsic activity) [1]: 0.61

N#Cc1cccc(SCCCCN2CCN(c3cccc4[nH]c(=O)oc34)CC2)c1 [compound 20]
Ki (dopamine-D2 receptors): 3.98 nM | Ki (serotonin reuptake sites): 3.16 nM | Dopamine-D2 cAMP accum ε (intrinsic activity) [1]: 0.98

N#Cc1cccc(OCCCCN2CCN(c3cccc4[nH]c(=O)oc34)CC2)c1 [compound 6]
Ki (dopamine-D2 receptors): 1 nM | Ki (serotonin reuptake sites): 3.98 nM | Dopamine-D2 cAMP accum ε (intrinsic activity) [1]: 0.76 | melting point: 165 to 168 °C

COc1ccc(C#N)cc1OCCCN1CCN(c2cccc3[nH]c(=O)oc23)CC1 [compound 24]
Ki (dopamine-D2 receptors): 1.26 nM | Ki (serotonin reuptake sites): 12.6 nM | Dopamine-D2 cAMP accum ε (intrinsic activity) [1]: 0.86 | melting point: 189 to 190 °C

N#Cc1cccc(SCCCCN2CCN(c3cccc4[nH]c(=O)oc34)CC2)c1 (as salt: HCl) [compound 20]
melting point: 168 to 170 °C

N#Cc1cccc(OCCCN2CCN(c3cc(Cl)cc4[nH]c(=O)oc34)CC2)c1 (as salt: HCl) [compound 26]
melting point: 251 to 254 °C

CN(CCN1CCN(c2cccc3[nH]c(=O)oc23)CC1)c1cccc(C#N)c1 (as salt: HCl) [compound 14]
melting point: 230 to 231 °C

CN(CCCCN1CCN(c2cccc3c2oc(=O)n3C)CC1)c1cccc(C#N)c1 [compound 35]
Ki (dopamine-D2 receptors): 100 nM | Ki (serotonin reuptake sites): 0.631 nM | Dopamine-D2 cAMP accum ε (intrinsic activity) [1]: 0.55 | melting point: 87 to 89 °C

CN(CCN1CCN(c2cccc3[nH]c(=O)oc23)CC1)c1cccc(C#N)c1 [compound 14]
Ki (dopamine-D2 receptors): 15.8 nM | Ki (serotonin reuptake sites): 1 nM | Dopamine-D2 cAMP accum ε (intrinsic activity) [1]: 0.57

Cn1c(=O)oc2c(N3CCN(CCCCOc4cccc(F)c4)CC3)cccc21 [compound 31]
Ki (dopamine-D2 receptors): 63.1 nM | Ki (serotonin reuptake sites): 5.01 nM | Dopamine-D2 cAMP accum ε (intrinsic activity) [1]: 0.56 | melting point: 95 to 97 °C

O=c1[nH]c2cccc(N3CCN(CCCOc4cccc(C(F)(F)F)c4)CC3)c2o1 [compound 17]
Ki (dopamine-D2 receptors): 25.1 nM | Ki (serotonin reuptake sites): 50.1 nM | Dopamine-D2 cAMP accum ε (intrinsic activity) [1]: 0.51 | melting point: 140 to 142 °C

N#Cc1cccc(OCCCN2CCN(c3cc(Cl)cc4[nH]c(=O)oc34)CC2)c1 [compound 26]
Ki (dopamine-D2 receptors): 10 nM | Ki (serotonin reuptake sites): 10 nM | Dopamine-D2 cAMP accum ε (intrinsic activity) [1]: 0.79

CN(CCCN1CCN(c2cccc3[nH]c(=O)oc23)CC1)c1cccc(C#N)c1 (as salt: HCl) [compound 15]
melting point: 195 to 196 °C
